Data: article PMC10886162, “Synthesis of Novel Artemisinin, Ciprofloxacin, and Norfloxacin Hybrids with Potent Antiplasmodial Activity” (Antibiotics, 2024)
“And” between values parts separate entries of the source, which are not always exact repeats. Identical values can stand only once.

Columns and labels:
[1] = system: CQ-resistant P. falciparum FcB1 strain; experiment: In vitro growth inhibition of P. falciparum FcB1 ([3H]-hypoxanthine incorporation); format: cell-based, Plasmodium falciparum; conditions: for IC50: Plasmodium falciparum; for Selectivity Index (IC50 AB943/IC50 FcB1): ratio of cytotoxicity IC50 to antiplasmodial IC50 (FcB1)
Procedure: (§1) The chloroquine-resistant FcB1/Colombia and Dd2/Indochina strains of Plasmodium falciparum were obtained from the Protist Collection of the National Museum of Natural History, Paris, France (n° MNHN-CEU-2016-224-PfFCB1 and MNHN-CEU-2016-222-PfDD2). The parasites were maintained in vitro on human erythrocytes in RPMI 1640 medium supplemented by 8% (v/v) heat-inactivated human serum, at 37 °C, under an atmosphere of 5% CO2. The human red blood cells and serum were provided by the Établissement Français du Sang under the C-CPSL-UNT approval no. 13/EFS/126. The in vitro drug susceptibility assays were measured by [^3H]-hypoxanthine incorporation, as previously described. The drug stock solutions were prepared in DMSO. Briefly, the assays were performed in 96-well plates. The compounds were diluted in the culture medium (100 μL per well). The parasite cultures (100 μL, 2% parasitaemia, and 1% final hematocrit) were then added to each well and incubated for 24 h at 37 °C prior to the addition of 0.5 μCi of [^3H]- hypoxanthine (GE Healthcare, Paris, France, 1 to 5 Ci·mmol/mL) per well. After a further incubation of 24 h, the plates were frozen and thawed. The cell lysates were then collected onto fiberglass filters and counted in a liquid scintillation spectrometer. The growth inhibition for each drug concentration was determined through a comparison of the radioactivity incorporated in the treated culture with that in the control culture maintained on the same plate. The drugs were first evaluated for a range of fixed concentrations of 50, 5, 0.5, 0.05, and 0.005 μg/mL. […] The IC50 value was obtained from the drug concentration–response curve, and the results were expressed in μM or nM as the mean values ± standard deviations determined from several independent experiments. Artesunate (46) was used as an antimalarial drug control.

[2] = system: CQ-resistant Dd2 strain of P. falciparum; experiment: In vitro growth inhibition of P. falciparum Dd2 ([3H]-hypoxanthine incorporation); format: cell-based, Plasmodium falciparum; conditions: for IC50: Plasmodium falciparum, CQ-resistant Dd2, mean +/− SD of at least three independent experiments; for Selectivity Index (IC50 AB943/IC50 Dd2): ratio of cytotoxicity IC50 to antiplasmodial IC50 (Dd2)
Procedure: as §1

[3] = system: human primary fibroblasts AB943; experiment: Cytotoxicity upon human primary fibroblasts AB943 (resazurin); format: cell-based; conditions: Fibroblast, 72 h, mean +/− SD of at least three independent experiments
Procedure: A cellular cytotoxicity evaluation was performed upon human primary fibroblasts AB943, as previously described. The assays were realized in 96-well plates in DMEM + Glutamax without phenol red medium containing 25 mM HEPES, a pH of 7.3, and 10% of fetal calf serum under a 5% CO2 atmosphere, at 37 °C. After trypsin treatment, the AB943 cells were seeded at 2000 cells per well in 100 μL. After 24 h of incubation, drugs diluted in the culture medium were added (100 μL per well). The drug stock solutions were prepared in dimethyl sulfoxide (DMSO). The final DMSO concentration in the cultures remained below 1%. Control cultures were constituted of cultures treated with DMSO instead of the drug. The cytotoxicity assay was based on the conversion of a redo-sensitive dye (resazurin) to a fluorescent product via viable cells. After 72 h of incubation, the resazurin solution was added in each well at a final concentration of 45 μM. The fluorescence was measured at 530 nm excitation and 590 nm emission wavelengths after 4 h of incubation. The percentage of the inhibition of cell growth was calculated by comparing the fluorescence of cells maintained in the presence of the drug to that in the absence of the drug. The concentration causing 50% growth inhibition (IC50) was obtained from the drug concentration–response curve, and the results were expressed as the mean values ± standard deviations determined from several experiments.

[4] = FCB1, CQ-resistant FcB1, mean +/− standard deviation of independent experiments (at least four in Tables 1-2, at least three in Tables 3-4)
[5] = FCB1, Table 5, single compound (hybrid or AS alone)

melting point [°C]	SMILES	IC50 [1, 4] [nM]	Selectivity Index (IC50 AB943/IC50 FcB1) [1]	IC50 [2] [nM]	Selectivity Index (IC50 AB943/IC50 Dd2) [2]	IC50 [3] [nM]	IC50 [1, 5] [nM]
115.4 to 116.2	CCOC(=O)c1cn(C2CC2)c2cc(N3CCN(C(=O)CCC(=O)O[C@@H]4O[C@@H]5O[C@@]6(C)CCC7[C@H](C)CCC([C@H]4C)[C@]75OO6)CC3)c(F)cc2c1=O (stereo partly drawn) [Compound 21, Ethyl 1-cyclopropyl-6-fluoro-4-oxo-7-(4-(4-oxo-4-(((3R,6R,9R,10S,12R,12aR)-3,6,9-trimethyldecahydro-12H-3,12-epoxy[1,2]dioxepino[4,3-i]isochromen-10-yl)oxy)butanoyl)piperazin-1-yl)-1,4-dihydroquinoline-3-carboxylate]	5.4	9826	16	3302	52800	
123 to 124	C[C@@H]1CCC2[C@@H](C)[C@@H](CC(=O)N3CCN(c4cc5c(cc4F)c(=O)c(C(=O)O)cn5C4CC4)CC3)O[C@@H]3O[C@@]4(C)CCC1[C@@]23OO4 (stereo partly drawn) [Compound 12, 1-cyclopropyl-6-fluoro-4-oxo-7-(4-(2-((3R,6R,9R,10R,12R,12aR)-3,6,9-trimethyldecahydro-12H-3,12-epoxy[1,2]dioxepino[4,3-i]isochromen-10-yl)acetyl)piperazin-1-yl)-1,4-dihydroquinoline-3-carboxylic acid]	14.8	4453	32.5	2034	66100	
157 to 158.2	C[C@@H]1CCC2[C@@H](C)[C@H](OC(=O)CCC(=O)N3CCN(c4cc5c(cc4F)c(=O)c(C(=O)N4CCN(c6ccnc7cc(Cl)ccc67)CC4)cn5C4CC4)CC3)O[C@@H]3O[C@@]4(C)CCC1[C@@]23OO4 (stereo partly drawn) [Compound 28, (3R,6R,9R,10S,12R,12aR)-3,6,9-trimethyldecahydro-12H-3,12-epoxy[1,2]dioxepino[4,3-i]isochromen-10-yl 4-(4-(3-(4-(7-chloroquinolin-4-yl)piperazine-1-carbonyl)-1-cyclopropyl-6-fluoro-4-oxo-1,4-dihydroquinolin-7-yl)piperazin-1-yl)-4-oxobutanoate]	4.9	4046	12.4	1582	19600	
140 to 141.1	CCOC(=O)c1cn(CC)c2cc(N3CCN(C(=O)CCC(=O)O[C@@H]4O[C@@H]5O[C@@]6(C)CCC7[C@H](C)CCC([C@H]4C)[C@]75OO6)CC3)c(F)cc2c1=O (stereo partly drawn) [Compound 23, Ethyl 1-ethyl-6-fluoro-4-oxo-7-(4-(4-oxo-4-(((3R,6R,9R,10S,12R,12aR)-3,6,9-trimethyldecahydro-12H-3,12-epoxy[1,2]dioxepino[4,3-i]isochromen-10-yl)oxy)butanoyl)piperazin-1-yl)-1,4-dihydroquinoline-3-carboxylate]	1.5	28,000 and 28,382	3.5	12,488	43700	1.5
103.4 to 104.5	C[C@@H]1CCC2[C@@H](C)[C@H](OC(=O)CCC(=O)N3CCN(c4cc5c(cc4F)c(=O)c(C(=O)O)cn5C4CC4)CC3)O[C@@H]3O[C@@]4(C)CCC1[C@@]23OO4 (stereo partly drawn) [Compound 20, 1-cyclopropyl-6-fluoro-4-oxo-7-(4-(4-oxo-4-(((3R,6R,9R,10S,12R,12aR)-3,6,9-trimethyldecahydro-12H-3,12-epoxy[1,2]dioxepino[4,3-i]isochromen-10-yl)oxy)butanoyl)piperazin-1-yl)-1,4-dihydroquinoline-3-carboxylic acid]	4	10,318	8	5146	41300	
105 to 106	CCCCOC(=O)c1cn(C2CC2)c2cc(N3CCN(C(=O)C[C@H]4O[C@@H]5O[C@@]6(C)CCC7[C@H](C)CCC([C@H]4C)[C@]75OO6)CC3)c(F)cc2c1=O (stereo partly drawn) [Compound 16, Butyl 1-cyclopropyl-6-fluoro-4-oxo-7-(4-(2-((3R,6R,9R,10R,12R,12aR)-3,6,9-trimethyldecahydro-12H-3,12-epoxy[1,2]dioxepino[4,3-i]isochromen-10-yl)acetyl)piperazin-1-yl)-1,4-dihydroquinoline-3-carboxylate]	7.5	2000	24	622	14900	
155 to 156	CCCCOC(=O)c1cn(CC)c2cc(N3CCN(C(=O)CCC(=O)O[C@@H]4O[C@@H]5O[C@@]6(C)CCC7[C@H](C)CCC([C@H]4C)[C@]75OO6)CC3)c(F)cc2c1=O (stereo partly drawn) [Compound 24, Butyl 1-ethyl-6-fluoro-4-oxo-7-(4-(4-oxo-4-(((3R,6R,9R,10S,12R,12aR)-3,6,9-trimethyldecahydro-12H-3,12-epoxy[1,2]dioxepino[4,3-i]isochromen-10-yl)oxy)butanoyl)piperazin-1-yl)-1,4-dihydroquinoline-3-carboxylate]	1.9	16,000 and 16,047	9.2	3311	30300	1.9
135.1 to 136	CCOC(=O)c1cn(CC)c2cc(N3CCN(C(=O)C[C@H]4O[C@@H]5O[C@@]6(C)CCC7[C@H](C)CCC([C@H]4C)[C@]75OO6)CC3)c(F)cc2c1=O (stereo partly drawn) [Compound 18, Ethyl 1-ethyl-6-fluoro-4-oxo-7-(4-(2-((3R,6R,9R,10R,12R,12aR)-3,6,9-trimethyldecahydro-12H-3,12-epoxy[1,2]dioxepino[4,3-i]isochromen-10-yl)acetyl)piperazin-1-yl)-1,4-dihydroquinoline-3-carboxylate]	25.5	2129	58.7	925	54300	
128.6 to 129.7	CCCCOC(=O)c1cn(C2CC2)c2cc(N3CCN(C(=O)CCC(=O)O[C@@H]4O[C@@H]5O[C@@]6(C)CCC7[C@H](C)CCC([C@H]4C)[C@]75OO6)CC3)c(F)cc2c1=O (stereo partly drawn) [Compound 22, Butyl 1-cyclopropyl-6-fluoro-4-oxo-7-(4-(4-oxo-4-(((3R,6R,9R,10S,12R,12aR)-3,6,9-trimethyldecahydro-12H-3,12-epoxy[1,2]dioxepino[4,3-i]isochromen-10-yl)oxy)butanoyl)piperazin-1-yl)-1,4-dihydroquinoline-3-carboxylate]	3.5	11,303	13	3002	38900	3.5
115 to 116	C[C@@H]1CCC2[C@@H](C)[C@@H](CCC(=O)N3CCN(c4cc5c(cc4F)c(=O)c(C(=O)N4CCN(c6ccnc7cc(Cl)ccc67)CC4)cn5C4CC4)CC3)O[C@@H]3O[C@@]4(C)CCC1[C@@]23OO4 (stereo partly drawn) [Compound 26, 3-(4-(7-chloroquinolin-4-yl)piperazine-1-carbonyl)-1-cyclopropyl-6-fluoro-7-(4-(3-((3R,6R,9R,10R,12R,12aR)-3,6,9-trimethyldecahydro-12H-3,12-epoxy[1,2]dioxepino[4,3-i]isochromen-10-yl)propanoyl)piperazin-1-yl)quinolin-4(1H)-one]	13.7	2668	41.5	880	36500	
